{
  "source": "patent US11035856B1",
  "about": "(priority 2007, dated 2021)",
  "key": {"cyanobacteria [1]": {"system": "cyanobacteria", "format": "cell-based"}, "cyanobacteria [2]": {"system": "cyanobacteria", "format": "cell-based", "remark": "listed apart in the source"}},
  "note": "Several values for one entry are separate records, joined by “and”; a condition that tells them apart may be missing. Equal values may be shown once. Read-outs that look alike come from different tables or passages of the source.",
  "data": [
    {"molecule": "O=S(=O)([O-])[O-].[Cu+2]", "note": "[CuSO4, copper sulfate]", "values": [
      {"measurement": "Microcystin concentration determined by the assay", "setting": "cyanobacteria [1]; 10 ppm", "value": 2.40, "unit": "ppb"},
      {"measurement": "Microcystin concentration determined by the assay", "setting": "cyanobacteria [1]; 100 ppm", "value": 2.31, "unit": "ppb"},
      {"measurement": "Microcystin concentration determined by the assay", "setting": "cyanobacteria [1]; 1000 ppm", "value": "7.25 ppb and 5.17 ppb"},
      {"measurement": "Microcystin concentration determined by the assay", "setting": "cyanobacteria [1]; 1000 ppm for 10 min", "value": 4.28, "unit": "ppb"},
      {"measurement": "Microcystin concentration determined by the assay", "setting": "cyanobacteria [1]; 1000 ppm for 20 min", "value": 4.96, "unit": "ppb"},
      {"measurement": "Microcystin concentration determined by the assay", "setting": "cyanobacteria [1]; 1000 ppm for 30 min", "value": 5.64, "unit": "ppb"},
      {"measurement": "Microcystin concentration determined by the assay", "setting": "cyanobacteria [1]; 5000 ppm", "value": 4.79, "unit": "ppb"}
    ]},
    {"molecule": "CCCCCCCCCCCCOS(=O)(=O)[O-].[Na+]", "note": "[SDS, reference compound]", "values": [
      {"measurement": "Microcystin concentration determined by the assay", "setting": "cyanobacteria [1]; 0.1%", "value": 14.13, "unit": "ppb"}
    ]},
    {"molecule": "O=S(=O)([O-])[O-].O=S(=O)([O-])[O-].O=S(=O)([O-])[O-].[Al+3].[Al+3]", "note": "[Al2(SO4)3, reference compound]", "values": [
      {"measurement": "Microcystin concentration determined by the assay", "setting": "cyanobacteria [1]; 100 ppm", "value": 0.45, "unit": "ppb"}
    ]},
    {"molecule": "Triton X-100 [reference compound]", "values": [
      {"measurement": "Microcystin concentration determined by the assay", "setting": "cyanobacteria [1]", "value": "2.92 ppb and 2.52 ppb and 2.55 ppb"}
    ]},
    {"molecule": "O=[N+]([O-])[O-].[Ag+]", "note": "[Silver nitrate]", "values": [
      {"measurement": "effectiveness as a lytic agent", "setting": "cyanobacteria [2]", "value": "as effective as silver sulfate as a lytic agent"}
    ]}
  ]
}
